In the supplement of paper PMC10307832:

Experiments:
Test in all cases: relative viability (nuclei count vs DMSO), 5 days (fraction); higher = more cells survive
NPK76-II-72-1 + OSI-027 = compound: CC1CC(=O)N(C2=CN=C(N=C2N1C3CCCC3)NC4=C(C=C(C=C4)C(=O)NC5CCN(CC5)C)OC)C [NPK76-II-72-1] + COc1cccc2cc(-c3nc([C@H]4CC[C@H](C(=O)O)CC4)n4ncnc(N)c34)[nH]c12 [OSI-027] (partner 0.5 µM)
Procedure, shortened: (§1)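 A single step with final 0.05% Triton X-100, 1% formaldehyde and 1 ug/ml Hoechst fixed the cells and stained nuclei 5 days after treatment. Lung cancer cell lines in 1536-well plates had been treated by pin tool the day after seeding with one drug alone or a fixed anchor-drug dose plus five library-drug doses (not always all listed) in √10 steps, and nuclei were counted on 4× images. Relative viability is the ratio of nuclei in treated wells to nuclei in vehicle wells, taken as the median of duplicate plates.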

[1] = compound: CC1CC(=O)N(C2=CN=C(N=C2N1C3CCCC3)NC4=C(C=C(C=C4)C(=O)NC5CCN(CC5)C)OC)C [NPK76-II-72-1] + C[C@@H](Oc1cc(-c2cnn(C3CCNCC3)c2)cnc1N)c1c(Cl)ccc(F)c1Cl [Crizotinib] (partner 1 µM)
Procedure, shortened: as §1

BI-2536 + Phenformin = compound: CC[C@@H]1C(=O)N(C)c2cnc(Nc3ccc(C(=O)NC4CCN(C)CC4)cc3OC)nc2N1C1CCCC1 [BI-2536] + N=C(N)NC(=N)NCCc1ccccc1 [Phenformin] (partner 250 µM)
Procedure, shortened: as §1

BI-2536 + Pemetrexed = compound: CC[C@@H]1C(=O)N(C)c2cnc(Nc3ccc(C(=O)NC4CCN(C)CC4)cc3OC)nc2N1C1CCCC1 [BI-2536] + Nc1nc2[nH]cc(CCc3ccc(C(=O)N[C@@H](CCC(=O)O)C(=O)O)cc3)c2c(=O)[nH]1 [Pemetrexed] (partner 0.2 µM)
Procedure, shortened: as §1

In the case of UMC-11, the relative viability (NPK76-II-72-1 + OSI-027; first compound 0.01 µM) is reported as 0.435, the relative viability (NPK76-II-72-1 + OSI-027; first compound 0.03162 µM) is reported as 0.424 and the relative viability (NPK76-II-72-1 + OSI-027; first compound 0.1 µM) is reported as 0.521. The relative viability (NPK76-II-72-1 + OSI-027; first compound 1 µM) was 0.47, the relative viability ([1]; first compound 0.01 µM) was 0.622 and the relative viability ([1]; first compound 0.03162 µM) was 0.574. For the same cell line, the relative viability ([1]; first compound 0.1 µM) was 0.669, the relative viability ([1]; first compound 0.3162 µM) was 0.532 and the relative viability ([1]; first compound 1 µM) was 0.707. For the same cell line, the relative viability (BI-2536 + Phenformin; first compound 0.01 µM) was 0.286, the relative viability (BI-2536 + Phenformin; first compound 0.03162 µM) was 0.233 and the relative viability (BI-2536 + Phenformin; first compound 0.1 µM) was 0.177. For the same cell line, the relative viability (BI-2536 + Phenformin; first compound 0.3162 µM) was 0.192, the relative viability (BI-2536 + Phenformin; first compound 1 µM) was 0.175 and the relative viability (BI-2536 + Pemetrexed; first compound 0.01 µM) was 0.8. For the same cell line, the relative viability (BI-2536 + Pemetrexed; first compound 0.03162 µM) was 0.57, the relative viability (BI-2536 + Pemetrexed; first compound 0.1 µM) was 0.242 and the relative viability (BI-2536 + Pemetrexed; first compound 0.3162 µM) was 0.194. It also gave a relative viability (BI-2536 + Pemetrexed; first compound 1 µM) of 0.184.
